Test results as given in patent US7906508B2, “3,4-dihydrobenzoxazine compounds and inhibitors of vanilloid receptor subtype 1 (VRI) activity” (Japan Tobacco Inc., priority 2005, dated 2011).
pIC50: −log10 of the molar value. Like-named read-outs stand apart in the source and are kept apart here.

How the values were obtained:
[1] = Metabolic stability test in liver S9 (Test Example [2]); format: in vitro ADME, human; settings: for Human liver S9 remaining ratio: human liver S9 2 mg protein/mL, 37° C., 60 minutes of incubation vs 0 minute
Experimental: Human liver S9 (final concentration: 2 mg protein/mL) was suspended in 100 mM potassium phosphate buffer (at pH 7.4, which contained β-nicotinamide adenine dinucleotide phosphate: 1.3 mM, D-glucose-6-phosphate: 3.3 mM, magnesium chloride: 3.3 mM and glucose-6-phosphate dehydrogenase: 0.45 U/mL) and further mixed with the test compound dissolved in DMSO. The mixture was incubated at 37° C. for 0 and 60 minutes and then supplemented with acetonitrile containing formic acid (final concentration 0.1%). The test compound (uncharged) in a supernatant after centrifugation was measured using high-performance liquid chromatography/mass spectrometry (LC/MS). A remaining ratio (%) was calculated from the obtained measurement value according to the following equation: Remaining ratio (%)=(amount of test compound after 60 minutes of incubation/amount of test compound on 0 minute of incubation)×100

[2] = biological target: T1, human VR1 (Homo sapiens, UniProt Q8NER1); experiment: Inhibition of Ca2+ entry in cells caused by proton (Test Example [1]); format: cell-based; settings: for pIC50: rat glioma (C6BU1) cells stably expressing human VR1, proton stimulation, pH 5.7, Ca2+ uptake, Fura 2-AM, read-out: VRI Inhibition IC50
T1 construct: expressed in transfected cells
T1 sequence (Q8NER1 whole entry): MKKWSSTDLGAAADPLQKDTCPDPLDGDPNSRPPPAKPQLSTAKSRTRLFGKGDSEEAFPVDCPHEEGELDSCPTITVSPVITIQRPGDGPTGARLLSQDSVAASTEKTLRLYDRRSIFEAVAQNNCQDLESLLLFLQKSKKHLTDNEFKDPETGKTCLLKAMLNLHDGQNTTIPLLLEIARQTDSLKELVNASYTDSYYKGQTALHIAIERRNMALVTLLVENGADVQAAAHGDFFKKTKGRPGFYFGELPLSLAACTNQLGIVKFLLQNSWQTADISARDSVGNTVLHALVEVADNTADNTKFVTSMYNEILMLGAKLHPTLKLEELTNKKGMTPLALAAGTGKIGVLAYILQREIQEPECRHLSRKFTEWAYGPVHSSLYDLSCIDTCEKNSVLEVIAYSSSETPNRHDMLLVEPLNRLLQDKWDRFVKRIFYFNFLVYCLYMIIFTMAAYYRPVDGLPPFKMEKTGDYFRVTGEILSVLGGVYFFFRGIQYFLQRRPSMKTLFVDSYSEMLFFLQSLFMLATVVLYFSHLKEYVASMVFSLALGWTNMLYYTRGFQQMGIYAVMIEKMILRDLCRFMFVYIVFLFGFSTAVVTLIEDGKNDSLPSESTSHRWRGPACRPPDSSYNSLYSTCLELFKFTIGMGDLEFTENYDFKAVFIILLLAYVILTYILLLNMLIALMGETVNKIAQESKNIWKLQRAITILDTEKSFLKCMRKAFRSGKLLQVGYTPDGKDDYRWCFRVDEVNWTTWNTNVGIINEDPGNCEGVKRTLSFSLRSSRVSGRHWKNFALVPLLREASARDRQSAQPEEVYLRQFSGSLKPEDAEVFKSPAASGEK
Experimental: An inhibitory effect on VR1 activity was evaluated by measuring Ca^2+ uptake in cells.
Rat glioma (C6BU1) cells stably expressing human VR1 were suspended in 20 mM MES buffer (at pH 6.8, contg. 20 mM 2-morpholinoethanesulfonate (referred to as MES hereinafter), 115 mM NaCl, 5 mM KCl, 1 mM MgCl2 and 14 mM D-glucose) to make a cell density of 1×10^6 cells/mL. A fluorescent dye, Fura 2-AM solution (Dojindo Corporate, Cat. No. 343-05401) was added to the suspension to make a 5 μM concentration thereof. Further, Pluronic F-127 (Wako Pure Chemical Industries, Ltd., Cat. No. P6866) was added to make a 0.1% content thereof. Then, the suspension was incubated at 37° C. for 30 min. The cells were harvested and washed two times with 20 mM MES buffer. The cells were suspended again to make a cell density of 5×10^5 cells/mL. A 500-μL portion of the suspension was taken with a cuvette (MC MEDICAL, INC., Cat. No. SSR3121), to which 10 μL of 20 mM MES buffer containing 250 mM CaCl2 was added to incorporate Ca^2+ into the cells. At the same time, 5 μL of a test compound solution (in a range of 100 μM to 10 nM in DMSO) was also added to provide a final concentration thereof in a range of 1 μM to 0.1 nM. Alternatively, 5 μL of DMSO was added as control to provide a final concentration of 1% DMSO. The suspension was set in an intracellular ionometer (CAF-110; JASCO) 10 min after those additions. The cells were stimulated with protons by addition of 50 μL of 20 mM MES buffer at pH 1.1 to the suspension to set its pH at 5.7. The activity of the test compound was determined as a difference between the minimum of fluorescence intensity before agonist stimulation and its maximum after the stimulation. The value of IC50 was derived from percentage of inhibition by the test compound compared with the control.

[3] = test system: Caco2 cells; experiment: In-vitro membrane permeability test (Test Example [3]); format: in vitro ADME; settings: summary judgement
Experimental: (§1) 10 mM DMSO solution of the test compound was diluted with Hanks buffer (pH 6.5) to 25 μM to make a test compound solution. 300 μL of Apical buffer (Hanks buffer (pH 6.5)) and 1 mL of Basolateral buffer (4.5% BSA-containing Hanks buffer (pH 7.4)) were added to the apical side (mucosal side) and the basolateral side (serosal side), respectively, of Caco2 cells (cells cultured for 6 days after seeding) seeded onto a plate for permeability test (BIOCOAT HTS Caco2 Assay system: BD Biosciences), and preincubated at 37° C. for 20 minutes, followed by measurement of a transepithelial electrical resistance value. Each buffer on the apical side and basolateral side was removed by aspiration. Then, 300 μL of the test compound solution and 1 mL of Basolateral buffer were added to the apical side and the basolateral side, respectively, and incubated at 37° C. for 2 hours with stirring at 60 rpm. Then, sampling was performed from each of the apical side and the basolateral side, and the sample was supplemented with acetonitrile and centrifuged. The test compound (uncharged) in the supernatant was measured using high-performance liquid chromatography/tandem mass spectrometry (LC/MS/MS: Quantum, Thermo Quest).
(§2) A membrane permeability coefficient (Papp) was calculated according to the following equation: Papp(cm/sec.)=(dx/dt)/(A×C0)
(§3) (wherein dx is the amount of the test compound (uncharged) on the basolateral side after incubation, dt is an incubation time, A is the surface area of the cell membrane, and C0 is the initial concentration of the test compound on the apical side.)

[4] = as above; format: in vitro ADME; settings: human, Caco-2, Caco2 cells, 2 hours
Experimental: as §1, §2, §3

[5] = Stability test in Japanese Pharmacopoeia 1 solution (Test Example [4]); format: physicochemical; settings: for remaining ratio in Japanese Pharmacopoeia 1 solution: CH3CN : Japanese Pharmacopoeia 1 solution 3:7, 0.05 mM, 40° C., after 8 hours vs 0 hour
Experimental: The test compound was dissolved in a mixed solution of CH3CN and Japanese Pharmacopoeia 1 solution (volume ratio 3:7) and adjusted in a vial for HPLC to a concentration of 0.05 mM. The test compound was measured by HPLC at 40° C. after 0 and 8 hours. The measurement value on 0 hour was defined as 100% to determine the remaining ratio of the test compound after 8 hours.
The “Japanese Pharmacopoeia 1 solution” here represents a solution in which 21 ml of concentrated hydrochloric acid was added to 6 g of sodium chloride and further adjusted to 3 L with distilled water.

[6] = apical (pH 6.5) to basolateral (pH 7.4, 4.5% BSA), 25 μM, 37° C., read-out: membrane permeability Papp
[7] = compared with the compound of Comparative Example 8

SMILES	Human liver S9 remaining ratio [1]	pIC50 [2]	membrane permeability (in words) [3]	Papp A→B at 2 h, 25 μM [4, 6]	liver S9 remaining ratio relative to Comparative Example 8 [1, 7]	value of IC50 relative to Comparative Example 8 [2, 7]	Papp A→B at 2 h, 25 μM ([4]; apical to basolateral, read-out: membrane permeability in terms of the Papp values)	remaining ratio in Japanese Pharmacopoeia 1 solution [5]	metabolic stability in human liver S9 (in words) ([1]; summary judgement)	stability in gastric juice (in words) ([5]; inferred from stability in Japanese Pharmacopoeia 1 solution)
Cc1ccc(N2c3cccc(C(=O)Nc4ccc(C(F)(F)F)nc4)c3OC[C@@H]2CO)nc1 [Comparative Example 8]	62.9%	8.15	high membrane permeability	43.1 ×10⁻⁶ cm/s	–	–	–	–	–	–
Cc1ccc(N2c3cccc(C(=O)Nc4ccc(OCC(F)(F)F)nc4)c3OC[C@@H]2CO)nc1 [Example 1-6, (S)-4-(5-picoline-2-yl)-3-hydroxymethyl-N-[2-(2,2,2-trifluoroethyloxy)pyridine-5-yl]-3,4-dihydro-2H-benzo[1,4]oxazine-8-carboxamide]	–	9.82	–	37.5 ×10⁻⁶ cm/s	about 1.5 times	about 50 times	≥ 30 ×10⁻⁶ cm/s	100%	–	–
Cc1ccc(N2c3cccc(C(=O)Nc4ccc(OC(C)(C)C)c(F)c4)c3OC[C@@H]2CO)nc1 [Comparative Example 13]	91.3%	9.92	–	28.6 ×10⁻⁶ cm/s	–	–	–	62.1%	excellent metabolic stability	inferior stability in gastric juice
Cc1ccc(N2c3cccc(C(=O)Nc4cc(F)c(OCC(F)(F)F)c(F)c4)c3OC[C@@H]2CO)nc1 [Example 1-8, (S)-4-(5-picoline-2-yl)-3-hydroxymethyl-N-[3,5-difluoro-4-(2,2,2-trifluoroethoxy)phenyl]-3,4-dihydro-2H-benzo[1,4]oxazine-8-carboxamide]	–	10.42	–	13.6 ×10⁻⁶ cm/s	–	–	–	101%	–	–
Cc1ccc(N2c3cccc(C(=O)Nc4ccc(OC(C)C)c(F)c4)c3OC[C@@H]2CO)nc1 [Comparative Example 11]	66.7%	9.44	high membrane permeability	40.3 ×10⁻⁶ cm/s	–	–	–	–	–	–
